This note sets out measurements from the METLIN SMRT retention time set (Domingo-Almenara et al. 2019).

A short description of the data set: gradient 5% acetonitrile 3 min, to 50% in 2 min, to 85% in 15 min, held 3 min, 100 µL/min. The note with it: column: Zorbax Extend-C18 2.1 x 50 mm; eluents: water / acetonitrile, 0.1% formic acid. In short, it runs like this:
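In both positive and negative ionization mode, a quadrupole time-of-flight mass spectrometer coupled to HPLC analyzed pure standards run in mixtures of ~100 molecules. The Zorbax Extend-C18 column (2.1 × 50 mm, 1.8 μm) was operated at 100 μL/min with water and acetonitrile, each containing 0.1% formic acid. The dead volume was 40 μL and the dwell volume 900 μL. Retention time came from adduct peaks that were computationally picked and individually inspected by hand.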
Take `CCn1c(=O)c2ccccc2n(Cc2nc(-c3ccc(OC)c(OC)c3)no2)c1=O`: the RP-LC retention time was 920 s.

On to `CC(C)Oc1cc2oc(=O)cc(-c3ccccc3)c2cc1CCC(=O)N1CCN(c2ccccn2)CC1`, for which the RP-LC retention time turned out to be 647 s.

`COc1ccc(-c2noc(CC3CCN(C(=O)C4(c5ccc(OC)cc5)CC4)CC3)n2)cc1`: the RP-LC retention time turned out to be 1030 s.

On to `O=C(O)c1ccc2c(c1Sc1ccccc1)C(=O)c1ccccc1C2=O`, for which the RP-LC retention time was found to be 887 s.

Regarding `CCc1ccc(Nc2nc(C(=O)NCCc3cnc[nH]3)nc3ccccc23)cc1`, the RP-LC retention time turned out to be 603 s.

The molecule `O=C(CCc1ccccc1)NCCN1CCN(c2ccc(Cl)cc2)CC1` showed an RP-LC retention time of 619 s.

As for `Cc1[nH]c(C(=O)N2CCC(CC(=O)NCC3CCCO3)CC2)c(C)c1C(=O)OC(C)C` (stereo not drawn), the RP-LC retention time is 682 s.

With `Cc1cc(C(=O)N2CCCCC2c2nncn2CC2CC2)nn1C` (stereo not drawn), the RP-LC retention time is 629 s.

`CC(C)CN(CC(C)C)C(=O)C1CCN(S(=O)(=O)c2cccc3nsnc23)CC1` had an RP-LC retention time of 1040 s.

`Cc1cccc(N2CCN(CC(O)c3ccc4c(c3)OCO4)CC2)c1` (stereo not drawn) gave an RP-LC retention time of 669 s.

`CSc1cccc2sc(N(Cc3ccco3)C(=O)c3ccc(C#N)cc3)nc12`: the RP-LC retention time was 1110 s.

`Cc1cc(Cl)ccc1NC(=O)C1CCCN(c2ncnc3c2nc2n3CCCCC2)C1` (stereo not drawn) came in with an RP-LC retention time of 879 s.

In the case of `CCCn1cc(CCNC(=O)c2ccc(C)c(F)c2)c2cccnc21`, the RP-LC retention time came to 815 s.

For `COCCN1C(=O)Cc2ccccc2C1C(=O)NCc1ccccc1Br` (stereo not drawn), the RP-LC retention time was determined as 775 s.

For `CCNC(=O)c1ccc(-c2ccc3c(c2)CCN3C(C)=O)cc1`, the RP-LC retention time is 691 s.

`CCOc1cc(C(=O)Nc2ccc(-c3cn4cccnc4n3)cc2)cc(OCC)c1OCC` had an RP-LC retention time of 759 s.

Regarding `Cc1ccc2c(c1)N(C(=O)Cn1ncn3c(C)c(C(=O)NCc4ccccc4)c(C)c3c1=O)CCO2`, the RP-LC retention time was 886 s.

The molecule `Cn1cc(-c2noc(-c3cccs3)n2)ccc1=O` registered an RP-LC retention time of 778 s.

In turn, `O=C1CC(c2nc(-c3cccc(Cl)c3)no2)CN1c1ccc(F)cc1` (stereo not drawn) registered an RP-LC retention time of 1030 s.

Regarding `O=C(NCCn1ncc2c(=O)n(Cc3cccc(Cl)c3)cnc21)c1cc2ccccc2o1`, the RP-LC retention time worked out at 780 s.

`CC(C)CN1CCn2cc(C(=O)NC3CCCCC3)nc2C1` returned an RP-LC retention time of 600 s.

Consider `Cc1ccc(CC(=O)N2CCC(COc3ccc(C(=O)NC4CC4)cc3)CC2)cc1`, for which the RP-LC retention time was 856 s.

For `CCCn1cc(S(=O)(=O)Nc2cc(F)ccc2C)c2cccnc21`, the RP-LC retention time amounted to 926 s.

Regarding `CCN1CCN(Cc2ccc(C(=O)Nc3ccc(C)c(Oc4ccc5c(c4)CC(=O)N5)c3)cc2C(F)(F)F)CC1`, the RP-LC retention time amounted to 817 s.

`O=C(Cc1nnc(-c2ccc3ncccc3c2)o1)Nc1ccc(C(F)(F)F)cc1`: the RP-LC retention time was 827 s.

Turning to `COc1cccc(-c2nc(C3CCN(S(=O)(=O)c4ccc(C)c(C)c4)CC3)no2)c1`, the RP-LC retention time came to 1180 s.

On to `COc1ccc(-c2cn3ccn(-c4ccc5c(c4)CCC5)c(=O)c3n2)cc1OC`, for which the RP-LC retention time is 846 s.

The molecule `CCc1ccc(CNC(=O)CCC(=O)N2CCCn3nc(C)cc32)cc1` registered an RP-LC retention time of 666 s.

For `COc1cc(C(=O)N2CCN(c3c(C)n(C)c(=O)n(C)c3=O)CC2)cc(OC)c1OC`, the RP-LC retention time was 673 s.

`CCN1CCCC1CNC(=O)c1ccc2nc(Cc3ccccc3)oc2c1` (stereo not drawn) had an RP-LC retention time of 650 s.

As for `CCOc1ccc(NC(=O)C2CCN(c3cc(N4CCSCC4)ncn3)CC2)cc1`, the RP-LC retention time is 693 s.

Regarding `COc1cccc(CNC(=O)NCCc2cn(C)c3ncccc23)c1`, the RP-LC retention time came out at 642 s.

`Cc1ccc(S(=O)(=O)N2CCC(c3cc(N)on3)CC2)cc1` registered an RP-LC retention time of 789 s.

`CCN1c2cc(F)ccc2C(=O)NC12CCN(C(=O)c1ccc(OC)cc1OC)CC2` returned an RP-LC retention time of 781 s.

As to `Cc1cccc(-c2ncccc2CNS(=O)(=O)c2cccs2)c1`, the RP-LC retention time came to 677 s.

Consider `Cc1cc(-c2nnc(-c3ccco3)o2)c(C)n1CC(=O)Nc1ccc(F)c(F)c1`, for which the RP-LC retention time is 909 s.

Consider `Cc1ccc(N2CC(c3nc(-c4ccc5c(c4)nnn5C4CCCC4)no3)CC2=O)cc1` (stereo not drawn), for which the RP-LC retention time was 1070 s.

As for `COc1ccc(-c2cc3c(=O)n(Cc4noc(CN5CCC(C)CC5)n4)ccn3n2)cc1`, the RP-LC retention time worked out at 664 s.

For `COCCOc1ccc2c(c1)ncn2-c1ccc2cccc(N3CCC(N)CC3)c2n1`, the RP-LC retention time is 645 s.

For the molecule `COCc1nc(CCNS(=O)(=O)Cc2ccccc2)no1`, the RP-LC retention time came out at 722 s.

`Cc1cc(C2CCCN2C(=O)Nc2ccccc2Br)on1` (stereo not drawn): the RP-LC retention time was 867 s.

Molecule `COCCCN(CC(=O)N1CCNCC1)C(=O)c1ccc(F)c(Cl)c1` showed an RP-LC retention time of 596 s.

For `COc1ccc(NC(=O)N2CCC(n3cnnc3C3CC3)C2)c(OC)c1` (stereo not drawn), the RP-LC retention time stood at 610 s.

For the molecule `COc1ccccc1-c1nc(Cn2nnc(-c3nc(-c4cccc(F)c4)no3)c2C)c(C)o1`, the RP-LC retention time was 1130 s.

Regarding `CCc1nccn1Cc1nc(-c2ccccc2Cl)no1`, the RP-LC retention time worked out at 640 s.

With `O=C(NC1CCS(=O)(=O)C1)C1CCN(C(=O)C2CC(=O)N(c3ccc(F)cc3)C2)CC1` (stereo not drawn), the RP-LC retention time came out at 633 s.

`COc1ccc(-c2nc(-c3ccc4oc(C)nc4c3)no2)cn1` came in with an RP-LC retention time of 1060 s.

Regarding `CCN1C(=O)COc2ccc(-c3csc(NC(=O)c4ccccc4Cl)n3)cc21`, the RP-LC retention time turned out to be 968 s.

With `O=C(NCc1ccc(-c2noc(-c3cc(F)ccc3F)n2)s1)C1CC1`, the RP-LC retention time turned out to be 932 s.

Take `COCCn1nnnc1C1CC2(CCOCC2)C(=O)N1Cc1ccc(Cl)cc1` (stereo not drawn): the RP-LC retention time stood at 904 s.

`COc1ccc(CN2C=C(C(=O)OCc3noc(-c4ccco4)n3)C(C)=NS2(=O)=O)cc1` returned an RP-LC retention time of 1000 s.

In the case of `CN(CCc1noc(C2CN(Cc3c(F)cccc3Cl)C2)n1)S(C)(=O)=O`, the RP-LC retention time came out at 594 s.

`O=C(CSc1nnc(CCc2nc3ccccc3[nH]2)o1)NCCc1ccc(Cl)cc1` registered an RP-LC retention time of 601 s.

In the case of `Cc1ccc(OCc2nc(-c3ccc(N4CCSCC4)nc3)no2)cc1`, the RP-LC retention time came out at 1180 s.

Turning to `COc1ccc(N2CCN(C(=O)Cn3cccc3-c3nnc(C4CCC4)o3)CC2)cc1`, the RP-LC retention time was determined as 795 s.

`Cc1cc(=O)n(CC(=O)Nc2ccc3c(c2)OCCO3)c(N2CCCCC2)n1` had an RP-LC retention time of 645 s.

In turn, `O=C(Nc1nc(-c2ccc([N+](=O)[O-])cc2)cs1)c1ccc2ncsc2c1` had an RP-LC retention time of 892 s.

In turn, `CCOc1ccc(-c2cc3c(=O)n(Cc4nc(-c5ccccc5C)no4)ncn3n2)cc1` displayed an RP-LC retention time of 1130 s.

On to `Cc1ccccc1-c1nc2cnccn2c1NCCC(=O)NC(C)c1cccs1` (stereo not drawn), for which the RP-LC retention time was found to be 659 s.

Turning to `Cc1c(C(=O)NCCCN2CCC(C)CC2)sc2ncn(CC(=O)N3CCCCC3C)c(=O)c12` (stereo not drawn), the RP-LC retention time stood at 628 s.

In turn, `O=C(Cn1cccc(-c2nc(-c3ccccc3)no2)c1=O)Nc1ccc2c(c1)OCO2` returned an RP-LC retention time of 815 s.

As to `COCCOC1CCN(S(=O)(=O)c2ccccc2C)CC1`, the RP-LC retention time was determined as 810 s.

`Cc1cc(=O)n(CC(=O)NCc2ccc(F)c(Cl)c2)c(N2CCCCC2)n1` registered an RP-LC retention time of 716 s.

For `Cc1cc(=O)n(CC(=O)Nc2ccc3c(c2)OCO3)c(N2CCCCC2)n1`, the RP-LC retention time was 666 s.

As for `CCSc1nc2ccc(NS(=O)(=O)c3ccc(CC)cc3)cc2s1`, the RP-LC retention time amounted to 1120 s.

Molecule `CN(CC1CCOC1)C(=O)Nc1ccc(Cl)cc1` (stereo not drawn) displayed an RP-LC retention time of 696 s.

As to `CCOC(=O)c1ccc(NC(=O)c2ccc(=O)n(C)n2)cc1`, the RP-LC retention time was found to be 693 s.

`COc1cccc(COc2cn(C)c(C(=O)N3CCN(c4ncccn4)CC3)cc2=O)c1`: the RP-LC retention time turned out to be 605 s.

Consider `COC(=O)c1c(NCc2cc(F)cc(F)c2)c2cccc(Cl)c2[nH]c1=O`, for which the RP-LC retention time is 808 s.

Turning to `COC1CN(c2cccc(F)c2)C12CCN(S(=O)(=O)c1cccc3cccnc13)CC2` (stereo not drawn), the RP-LC retention time is 1110 s.

Molecule `CCOC(=O)c1c(C)[nH]c(C(=O)N2CCC(C(C)C(=O)NCc3ccc(OCC)cc3)CC2)c1C` (stereo not drawn) returned an RP-LC retention time of 860 s.

On to `Cc1ccc(N2C(=O)C3N=NN(Cc4nc(-c5ccc(Cl)cc5)no4)C3C2=O)cc1` (stereo not drawn), for which the RP-LC retention time worked out at 1070 s.

Consider `Cc1cc(Cl)ccc1S(=O)(=O)N1CCc2c(c(-c3nc(C4CC4)no3)nn2C)C1`, for which the RP-LC retention time was found to be 1070 s.

On to `COc1ccc(N2CC(c3noc(-c4ccc(N(C)C)cc4)n3)CC2=O)cc1` (stereo not drawn), for which the RP-LC retention time was determined as 889 s.

Turning to `Cc1cc(-c2nnc(-c3ccc(F)cc3)o2)c(C)n1CC(=O)Nc1ccc2c(c1)OCO2`, the RP-LC retention time was found to be 938 s.

With `O=C(Nc1ccc2c(c1)CN(C(=O)Nc1ccc3c(c1)OCCO3)CCO2)C1CC1`, the RP-LC retention time amounted to 717 s.

Turning to `CC(C)(C)n1nnnc1C1CC2(CCOCC2)C(=O)N1Cc1ccc(F)cc1` (stereo not drawn), the RP-LC retention time came to 798 s.

In turn, `COC[C@@H]1OCCN(S(=O)(=O)c2cc(OC)ccc2OC)[C@H]1c1ccccc1` registered an RP-LC retention time of 896 s.
